Usually MIC90 stands for the lowest concentration that inhibits either 90% of growth or 90% of the strains tested, depending on the study. Lower therefore signals greater potency.

MIC90 data for one molecule are collected here from US20220127297A1, “Novel Antibacterial 3"-Derivatives Of 4,6-Disubstituted 2,5-Dideoxystreptamine Aminoglycoside Antibiotics” (AGILeBiotics B.V., priority 2018, published 2022).

The test has as its system clinical isolates of multidrug-resistant Klebsiella pneumoniae (and ATCC43816). As to the kind of experiment: MIC determination at Fidelta, clinical isolates. Format: cell-based. The settings on record: Klebsiella pneumoniae. An excerpt:
3.4.2 MIC Determination at Fidelta (Croatia)
Tested reference compounds. Amikacin sulfate (Cat. No. 01693, Chem-Impex), Gentamicin sulfate (Cat. No. G4918, Sigma Aldrich), Ceftazidime Pentahydrate (Cat. No. 1098130, USP), Meropenem (Cat. No. 1392454, USP), Tobramycin (Cat. No. 1667508, USP).
Microbial strains. Klebsiella pneumoniae KP-1919 (abdomen), Klebsiella pneumoniae KP-1935 (urine), Klebsiella pneumoniae KP-1936 (abscess), Klebsiella pneumoniae KP-1937 (blood), Klebsiella pneumoniae KP-1942 (urine), Klebsiella pneumoniae KP-1944 (blood), Klebsiella pneumoniae KP-2027 (tracheal aspirate), Klebsiella pneumoniae KP-2029 (urine), Klebsiella pneumoniae KP-2030 (trachea), Klebsiella pneumoniae KP-2031 (skin), Klebsiella pneumoniae KP-2032 (urine), Klebsiella pneumoniae KP-2033 (urine), Klebsiella pneumoniae KP-2034 (urine), Klebsiella pneumoniae KP-2035 (urine), Klebsiella pneumoniae KP-2036 (urine), Klebsiella pneumoniae KP-2037 (urine), Klebsiella pneumoniae ATCC 43816, Pseudomonas aeruginosa PA-1948 (wound), Pseudomonas aeruginosa PA-1949 (urine), Pseudomonas aeruginosa PA-1950 (sputum), Pseudomonas aeruginosa PA-1952 (wound), Pseudomonas aeruginosa PA-1953 (urine), Pseudomonas aeruginosa PA-1954 (sputum), Pseudomonas aeruginosa PA-1967 (blood), Pseudomonas aeruginosa ATCC27853, Acinetobacter baumannii AB-1931 (urine), Acinetobacter baumannii AB-1932 (urine), Acinetobacter baumannii AB-2017 (bronchial aspirate), Acinetobacter baumannii AB-2018 (skin), Acinetobacter baumannii AB-2019 (bronchial aspirate), Acinetobacter baumannii AB-1964 (blood), Acinetobacter baumannii AB-2025 (skin), Acinetobacter baumannii AB-2026 (skin), Acinetobacter baumannii ATCC17978, methicillin-resistant Staphylococcus aureus MRSA-1995 (liquor), methicillin-resistant Staphylococcus aureus MRSA-1998 (wound), methicillin-resistant Staphylococcus aureus MRSA-1999 (skin), methicillin-resistant Staphylococcus aureus MRSA-2003 (wound), vancomycin-resistant Enterococcus faecium VRE-2005 (urine), vancomycin-resistant Enterococcus faecium VRE-2006 (urine), vancomycin-resistant Enterococcus faecium VRE-2007 (urine), vancomycin-resistant Enterococcus faecium VRE-2008 (urine), vancomycin-resistant Enterococcus faecium VRE-2009 (urine), vancomycin-resistant Enterococcus faecium VRE-2010 (urine), vancomycin-resistant Enterococcus faecium VRE-2011 (rectum), vancomycin-resistant Enterococcus faecium VRE-2012 (rectum), vancomycin-resistant Enterococcus faecium VRE-2013 (rectum).
Culture media and equipment. BBL™ Mueller Hinton Broth (REF 275730, Lot. 7009699, Becton Dickinson); Mueller Hinton Agar 2 (Ref. No. 97580-500G-F, Lot. No. BCBV4646, Sigma); Cellstar, 96-well plates, U-bottom (Cat. No. 650180, Lot. No. E14123EB, Greiner Bio-one); 96-well deep well plate, 1 mL (Cat. No. 278606, Nunc); Incubator (Binder); Laminar flow (Thermo Scientific); BioPhotometer (Eppendorf); DEN-1B (McFarland Densitometer, Biosan); McFarland standards (polymer microparticle suspension, Biosan).
Compound preparation. For testing, 5 mg/mL DMSO solutions of the test compounds and reference antibiotics were used. Out of these DMSO solutions, 43.5 μL was transferred to 1656.5 μL of MH media in a deep well plate. Out of these working solutions 100 μL was transferred to wells in the third column of 96-well plates. Plates are previously filled with 50 μL of MH media in all wells except for the wells in the third column. After compound and antibiotic addition, 50 μL was transferred from the third to the fourth column, then from the fourth to the fifth and so on. In this manner, the compounds and antibiotics were plated in 96-well plate in serial two-fold dilutions giving a final concentration range of 64-0.125 μg/mL.
Inoculum preparation. Designations used for clinical isolates were from Fidelta strain collection bank. Microorganisms used were all revived from skim milk storage at −70° C. by plating them on MH agar plates.

Values after ≈ are worked out from the molar mass of the structure shown. Where only a bound is given, the exact number is not on record here.

With `NC[C@H]1O[C@H](O[C@H]2[C@H](O)[C@@H](O[C@H]3O[C@H](CO)[C@@H](O)[C@H](N)[C@H]3O)[C@H](N)C[C@@H]2N)[C@H](N)C[C@@H]1O` [Tobramycin, tobramycin], the MIC90 was 0.125 µg/mL (≈ 0.267 µM) (ATCC43816); 32 µg/mL (≈ 68.4 µM) (ATCC43816, KP-1919, Abdomen/VIM, ESBL); 32 µg/mL (≈ 68.4 µM) (ATCC43816, KP-1935, Urine/ESBL, NDM); 16 µg/mL (≈ 34.2 µM) (ATCC43816, KP-1936, Abscess/NDM); > 64 µg/mL (ATCC43816, KP-1937, Blood/VIM, ESBL); 16 µg/mL (≈ 34.2 µM) (ATCC43816, KP-1942, Urine (catheter)/VIM). The MIC90 is, setting by setting: (ATCC43816, KP-1944, Blood/NDM) 32 µg/mL (≈ 68.4 µM); (ATCC43816, KP-2027, Tracheal aspirate/ESBL, OXA-48, ColR) 16 µg/mL (≈ 34.2 µM); (ATCC43816, KP-2029, Urine/ESBL, OXA-48) 32 µg/mL (≈ 68.4 µM); (ATCC43816, KP-2030, Trachea/ESBL, OXA-48) 64 µg/mL (≈ 137 µM); (ATCC43816, KP-2031, Skin/ESBL, OXA-48) 32 µg/mL (≈ 68.4 µM); (ATCC43816, KP-2032, Urine/ESBL, OXA-48) 16 µg/mL (≈ 34.2 µM). The MIC90 by setting is: (ATCC43816, KP-2033, Urine/OXA-A8) > 64 µg/mL; (ATCC43816, KP-2034, Urine/ESBL, OXA-48) 32 µg/mL (≈ 68.4 µM); (ATCC43816, KP-2035, Urine/ESBL, OXA-48) 64 µg/mL (≈ 137 µM); (ATCC43816, KP-2036, Urine/ESBL) 16 µg/mL (≈ 34.2 µM); (ATCC43816, KP-2037, Urine/ESBL, OXA-48) 16 µg/mL (≈ 34.2 µM).
